Tests used:
Test in all cases: Test B pre-/postemergence plant response
Type in all cases: in vivo
[1] = system: Italian ryegrass (Lolium multiflorum)
In short: (§1)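 Greenhouse herbicide screen. Pre- and postemergence (1- to 4-leaf) spray of compound in solvent/surfactant mixture; loam–sand soil for pre, peat/vermiculite medium for post. Visual control rating 0–100 at 13 to 15 days after treatment.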

[2] = system: Surinam grass (Brachiaria decumbens)
In short: as §1

[3] = system: bermudagrass (Cynodon dactylon)
In short: as §1

[4] = system: blackgrass (Alopecurus myosuroides)
In short: as §1

[5] = system: cocklebur (Xanthium strumarium)
In short: as §1

[6] = system: corn (Zea mays)
In short: as §1

[7] = system: downy bromegrass (Bromus tectorum)
In short: as §1

[8] = system: green foxtail (Setaria viridis)
In short: as §1

[9] = system: kochia (Kochia scoparia)
In short: as §1

[10] = system: lambsquarters (Chenopodium album)
In short: as §1

[11] = system: large crabgrass (Digitaria sanguinalis)
In short: as §1

[12] = system: pigweed (Amaranthus retroflexus)
In short: as §1

[13] = system: ragweed (common ragweed, Ambrosia elatior)
In short: as §1

[14] = system: soybean (Glycine max)
In short: as §1

[15] = system: velvetleaf (Abutilon theophrasti)
In short: as §1

[16] = system: wild oat (Avena fatua)
In short: as §1

[17] = system: yellow nutsedge (Cyperus esculentus)
In short: as §1

[18] = 31 g ai/ha, postemergence, scale 0 to 100, 0 is no effect, 100 is complete control
[19] = 250 g ai/ha, Preemergence, 0 to 100 scale
[20] = Postemergence, 62 g ai/ha, scale 0 (no effect) to 100 (complete control), 13 to 15 days
[21] = Postemergence, 125 g ai/ha, visual rating after 13 to 15 days, scale 0 (no effect) to 100 (complete control)
[22] = Postemergence, 250 g ai/ha, scale 0 to 100 (0 no effect, 100 complete control)
[23] = Preemergence, 31 g ai/ha, scale 0 to 100 (0 no effect, 100 complete control)
[24] = Preemergence, 125 g ai/ha, 0 to 100 scale
[25] = Preemergence, 62 g ai/ha, scale 0 to 100, 0 no effect, 100 complete control

## CCCn1c(-c2ccccc2)ncc(C(=O)C2=C(O)CCCC2=O)c1=O [Compound 50]
[1]; [18]
  Plant response rating, Ryegrass, Italian: 0
[1]; [19]
  Plant response rating, Ryegrass, Italian: 0
[1]; [20]
  Plant response rating, Ryegrass, Italian: 0
[1]; [21]
  Plant response rating, Ryegrass, Italian: 0
[1]; [22]
  Plant response rating, Ryegrass, Italian: 0
[1]; [23]
  Plant response rating, Ryegrass, Italian: 0
[1]; [24]
  Ryegrass, Italian plant response rating: 0
[2]; [18]
  Plant response rating, Surinam Grass: 65
[2]; [19]
  Plant response rating, Surinam Grass: 100
[2]; [20]
  Plant response rating, Surinam Grass: 75
[2]; [21]
  Plant response rating, Surinam Grass: 80
[2]; [22]
  Plant response rating, Surinam Grass: 85
[2]; [23]
  Plant response rating, Surinam Grass: 75
[2]; [24]
  Surinam Grass plant response rating: 98
[3]; [18]
  Plant response rating, Bermudagrass: 90
[3]; [19]
  Plant response rating, Bermudagrass: 100
[3]; [20]
  Plant response rating, Bermudagrass: 100
[3]; [21]
  Plant response rating, Bermudagrass: 100
[3]; [22]
  Plant response rating, Bermudagrass: 100
[3]; [23]
  Plant response rating, Bermudagrass: 100
[3]; [25]
  Plant response rating, Bermudagrass: 100
[3]; [24]
  Bermudagrass plant response rating: 100
[4]; [18]
  Plant response rating, Blackgrass: 5
[4]; [19]
  Plant response rating, Blackgrass: 5
[4]; [20]
  Plant response rating, Blackgrass: 5
[4]; [21]
  Plant response rating, Blackgrass: 5
[4]; [22]
  Plant response rating, Blackgrass: 15
[4]; [23]
  Plant response rating, Blackgrass: 0
[4]; [25]
  Plant response rating, Blackgrass: 0
[4]; [24]
  Blackgrass plant response rating: 0
[5]; [18]
  Plant response rating, Cocklebur: 85
[5]; [20]
  Plant response rating, Cocklebur: 85
[5]; [21]
  Plant response rating, Cocklebur: 90
[5]; [22]
  Plant response rating, Cocklebur: 90
[5]; [25]
  Plant response rating, Cocklebur: 75
[5]; [24]
  Cocklebur plant response rating: 75
[6]; [18]
  Plant response rating, Corn: 5
[6]; [19]
  Plant response rating, Corn: 0
[6]; [20]
  Plant response rating, Corn: 10
[6]; [21]
  Plant response rating, Corn: 25
[6]; [22]
  Plant response rating, Corn: 25
[6]; [23]
  Plant response rating, Corn: 0
[6]; [25]
  Plant response rating, Corn: 0
[6]; [24]
  Corn plant response rating: 0
[7]; [18]
  Plant response rating, Bromegrass, Downy: 0
[7]; [19]
  Plant response rating, Bromegrass, Downy: 0
[7]; [20]
  Plant response rating, Bromegrass, Downy: 5
[7]; [21]
  Plant response rating, Bromegrass, Downy: 20
[7]; [22]
  Plant response rating, Bromegrass, Downy: 20
[7]; [23]
  Plant response rating, Bromegrass, Downy: 0
[7]; [25]
  Plant response rating, Bromegrass, Downy: 0
[7]; [24]
  Bromegrass, Downy plant response rating: 0
[8]; [18]
  Plant response rating, Foxtail, Green: 80
[8]; [19]
  Plant response rating, Foxtail, Green: 100
[8]; [20]
  Plant response rating, Foxtail, Green: 80
[8]; [21]
  Plant response rating, Foxtail, Green: 95
[8]; [22]
  Plant response rating, Foxtail, Green: 95
[8]; [23]
  Plant response rating, Foxtail, Green: 50
[8]; [25]
  Plant response rating, Foxtail, Green: 50
[8]; [24]
  Foxtail, Green plant response rating: 95
[9]; [18]
  Plant response rating, Kochia: 95
[9]; [20]
  Plant response rating, Kochia: 100
[9]; [21]
  Plant response rating, Kochia: 100
[9]; [22]
  Plant response rating, Kochia: 100
[10]; [18]
  Plant response rating, Lambsquarters: 98
[10]; [19]
  Plant response rating, Lambsquarters: 100
[10]; [20]
  Plant response rating, Lambsquarters: 98
[10]; [21]
  Plant response rating, Lambsquarters: 100
[10]; [22]
  Plant response rating, Lambsquarters: 100
[10]; [23]
  Plant response rating, Lambsquarters: 100
[10]; [25]
  Plant response rating, Lambsquarters: 100
[10]; [24]
  Lambsquarters plant response rating: 100
[11]; [18]
  Plant response rating, Crabgrass, Large: 75
[11]; [19]
  Plant response rating, Crabgrass, Large: 100
[11]; [20]
  Plant response rating, Crabgrass, Large: 85
[11]; [21]
  Plant response rating, Crabgrass, Large: 95
[11]; [22]
  Plant response rating, Crabgrass, Large: 98
[11]; [23]
  Plant response rating, Crabgrass, Large: 98
[11]; [25]
  Plant response rating, Crabgrass, Large: 100
[11]; [24]
  Crabgrass, Large plant response rating: 100
[12]; [18]
  Plant response rating, Pigweed: 80
[12]; [19]
  Plant response rating, Pigweed: 100
[12]; [20]
  Plant response rating, Pigweed: 98
[12]; [21]
  Plant response rating, Pigweed: 100
[12]; [22]
  Plant response rating, Pigweed: 100
[12]; [23]
  Plant response rating, Pigweed: 90
[12]; [24]
  Pigweed plant response rating: 100
[13]; [18]
  Plant response rating, Ragweed: 80
[13]; [19]
  Plant response rating, Ragweed: 100
[13]; [20]
  Plant response rating, Ragweed: 90
[13]; [21]
  Plant response rating, Ragweed: 98
[13]; [22]
  Plant response rating, Ragweed: 98
[13]; [23]
  Plant response rating, Ragweed: 75
[13]; [24]
  Ragweed plant response rating: 95
[14]; [18]
  Plant response rating, Soybean: 85
[14]; [19]
  Plant response rating, Soybean: 0
[14]; [20]
  Plant response rating, Soybean: 85
[14]; [21]
  Plant response rating, Soybean: 95
[14]; [22]
  Plant response rating, Soybean: 95
[14]; [23]
  Plant response rating, Soybean: 0
[15]; [18]
  Plant response rating, Velvetleaf: 90
[15]; [19]
  Plant response rating, Velvetleaf: 100
[15]; [20]
  Plant response rating, Velvetleaf: 98
[15]; [21]
  Plant response rating, Velvetleaf: 98
[15]; [22]
  Plant response rating, Velvetleaf: 100
[15]; [23]
  Plant response rating, Velvetleaf: 85
[15]; [24]
  Velvetleaf plant response rating: 100
[16]; [18]
  Plant response rating, Oat, Wild: 5
[16]; [19]
  Plant response rating, Oat, Wild: 0
[16]; [20]
  Plant response rating, Oat, Wild: 5
[16]; [21]
  Plant response rating, Oat, Wild: 10
[16]; [22]
  Plant response rating, Oat, Wild: 30
[16]; [23]
  Plant response rating, Oat, Wild: 0
[16]; [24]
  Oat, Wild plant response rating: 0
[17]; [18]
  Plant response rating, Nutsedge, Yellow: 70
[17]; [19]
  Plant response rating, Nutsedge, Yellow: 90
[17]; [20]
  Plant response rating, Nutsedge, Yellow: 70
[17]; [21]
  Plant response rating, Nutsedge, Yellow: 70
[17]; [22]
  Plant response rating, Nutsedge, Yellow: 75
[17]; [23]
  Plant response rating, Nutsedge, Yellow: 80
[17]; [24]
  Nutsedge, Yellow plant response rating: 90

Source: patent publication US8952024B2, “Herbicidal pyrimidone derivatives” (E I du Pont de Nemours and Company, priority 2009, dated 2015)
